For this assay, the system named is pAMPK. In words: pAMPK immunostaining chemiluminescence assay in Beas2B cells. In kind it is cell-based. The note with it: Homo sapiens, BEAS-2B, 18 h, DMEM no glucose media, compounds 3-34, 36-44, 47-60 tested as HCl salts, read-out: efficacy (minimal compound concentration needed to increase pAMPK by 30%). The method, then: Beas2B cells were plated in 384 white nunc plate (4000 cells per well) for overnight. Compounds were serially diluted in DMEM no glucose media using the liquid handler. Cells were washed once using Biotek EL406 before compound addition for additional 18 hours. Cells were washed and fixed with PFA before immunostained with pAMPK primary antibody and anti-Rabbit HRP secondary antibody. Finally, 25 μl of ECL reagent will be added to cells, and chemical luminescence signal will be counted using plate reader. Compounds efficacies (μM) were determined by the minimal compound concentration needed to increase pAMPK by 30%. Activity: “+” equals >10 μM; “++” equals between ≤10 μM and >1 μM; and “+++” equals ≤1 μM.
Consider `Cc1ccccc1CN(CC(O)COc1ccc(C(F)(F)F)cc1)C(=O)c1ccnn1C` (stereo not drawn) [compound 152], for which the EC (30% increase) lay in the range of 1 to 10 µM.

With `Cn1cncc1C(=O)N(Cc1ccccc1F)CC(O)COc1ccc(C(F)(F)F)cc1` (stereo not drawn) [compound 153], the EC (30% increase) lay within 1 to 10 µM.

As to `Cc1ccccc1CN(CCOc1ccc(C(F)(F)F)cc1)Cc1cccnc1` [compound 154], the EC (30% increase) was not above 1 µM.

For `FC(F)(F)c1ccc(OCCN(Cc2cccnc2)Cc2ccccc2Cl)cc1` [compound 155], the EC (30% increase) was not above 1 µM.

Turning to `Fc1ccccc1CN(CCOc1ccc(C(F)(F)F)cc1)Cc1cccnc1` [compound 156], the EC (30% increase) was not above 1 µM.

Take `Cn1ccnc1CN(CCOc1ccc(C(F)(F)F)cc1)Cc1ccccc1Cl` [compound 157]: the EC (30% increase) is not above 1 µM.

Consider `Cn1ccnc1CN(CCOc1ccc(C(F)(F)F)cc1)Cc1ccccc1F` [compound 158], for which the EC (30% increase) was not above 1 µM.

As to `Cn1cncc1CN(CCOc1ccc(C(F)(F)F)cc1)Cc1ccccc1Cl` [compound 159], the EC (30% increase) is not above 1 µM.

On to `Cn1cncc1CN(CCOc1ccc(C(F)(F)F)cc1)Cc1ccccc1F` [compound 160], for which the EC (30% increase) is not above 1 µM.

On to `Cn1cncc1C(=O)N(CC(=O)COc1ccc(C(F)(F)F)cc1)Cc1ccccc1Cl` [compound 161], for which the EC (30% increase) was not above 1 µM.

For the compound `Cc1ccccc1CN(CC(O)COc1ccc(C(F)(F)F)cc1)C(C)c1nccn1C` (stereo not drawn) [compound 162], the EC (30% increase) is more than 10 µM.

On to `[2H]C(C)(c1cccnc1)N(Cc1ccccc1Cl)CC(O)COc1ccc(C(F)(F)F)cc1` (stereo not drawn) [compound 163], for which the EC (30% increase) was more than 10 µM.

For the compound `FC(COc1ccc(C(F)(F)F)cc1)CN(Cc1cccnc1)Cc1ccccc1Cl` (stereo not drawn) [compound 164], the EC (30% increase) was not above 1 µM.

Take `Cc1ccccc1CN(Cc1cccnc1)CC(F)COc1ccc(C(F)(F)F)cc1` (stereo not drawn) [compound 165]: the EC (30% increase) was not above 1 µM.

With `Cn1cncc1C(=O)N(CCCOc1cnc(C(F)(F)F)nc1)Cc1ccccc1Cl` [compound 168], the EC (30% increase) was more than 10 µM.

In the case of `Cc1ccccc1CN(CCCOc1cnc(C(F)(F)F)nc1)Cc1cccnc1` [compound 169], the EC (30% increase) is not above 1 µM.

Regarding `Cc1ccccc1CN(CCOc1ccc(C(F)(F)F)cc1)Cc1cncn1C` [compound 171], the EC (30% increase) is 1 to 10 µM.

Regarding `FC(F)(F)c1ccc(OCCN(Cc2cncs2)Cc2ccccc2Cl)cc1` [compound 172], the EC (30% increase) was not above 1 µM.

Turning to `Fc1ccccc1CN(CCOc1ccc(C(F)(F)F)cc1)Cc1cncs1` [compound 173], the EC (30% increase) was not above 1 µM.

On to `FC(F)(F)c1ccc(OCCCN(Cc2cccnc2)Cc2ccccc2C(F)(F)F)cc1` [compound 174], for which the EC (30% increase) is not above 1 µM.

On to `Cn1ccnc1C1Cc2ccccc2CN1CCCOc1ccc(C(F)(F)F)cc1` (stereo not drawn) [compound 175], for which the EC (30% increase) is not above 1 µM.

Regarding `Cc1ccccc1CN(CC(O)COc1ccc(C(F)(F)F)cc1)C(C)c1cncs1` (stereo not drawn) [compound 176], the EC (30% increase) lay within 1 to 10 µM.

Consider `[2H]C(C)(c1cccnc1)N(Cc1ccccc1C)CC(O)COc1ccc(C(F)(F)F)cc1` (stereo not drawn) [compound 177], for which the EC (30% increase) is more than 10 µM.

On to `CC1(c2cccnc2)Cc2ccccc2CN1CC(O)COc1ccc(C(F)(F)F)cc1` (stereo not drawn) [compound 178], for which the EC (30% increase) was not above 1 µM.

As to `Cc1ccccc1CN(Cc1cccnn1)CC(C)(C)COc1ccc(C(F)(F)F)cc1` [compound 181], the EC (30% increase) was not above 1 µM.

As to `Cc1ccccc1CN(CCCOc1ccc(C(F)(F)F)cc1)Cc1ccnnc1` [compound 182], the EC (30% increase) is not above 1 µM.

With `Cc1ccccc1CN(CCCOc1ccc(C(F)(F)F)cc1)Cc1cccnn1` [compound 183], the EC (30% increase) is not above 1 µM.

Take `CC(C)(COc1ccc(C(F)(F)F)cc1)CN(Cc1cccnc1)Cc1cccnc1` [compound 184]: the EC (30% increase) was not above 1 µM.

Consider `CC(C)(COc1ccc(C(F)(F)F)cc1)CN(Cc1cccnc1)Cc1ccccc1F` [compound 185], for which the EC (30% increase) is not above 1 µM.

For the compound `CC(C)(COc1ccc(C(F)(F)F)cc1)CN(Cc1cccnc1)Cc1ccccc1Cl` [compound 186], the EC (30% increase) was not above 1 µM.

Consider `COC(=O)C1c2ccccc2CCN1CCCOc1ccc(C(F)(F)F)cc1` (stereo not drawn) [compound 187], for which the EC (30% increase) is not above 1 µM.

Take `OCC1c2ccccc2CCN1CCCOc1ccc(C(F)(F)F)cc1` (stereo not drawn) [compound 188]: the EC (30% increase) is not above 1 µM.

Turning to `Cc1ccc2c(c1)CC(c1nccn1C)N(CC(O)COc1ccc(C(F)(F)F)cc1)C2` (stereo not drawn) [compound 189], the EC (30% increase) was more than 10 µM.

In the case of `Cc1ccccc1CN(Cc1cccnc1)CC(C)(C)COc1cnc(C(F)(F)F)nc1` [compound 190], the EC (30% increase) lay within 1 to 10 µM.

Turning to `Cc1ccccc1CN(Cc1cccnc1)CC(C)COc1ccc(C(F)(F)F)cc1` (stereo not drawn) [compound 191], the EC (30% increase) was not above 1 µM.

As to `Cc1ccccc1CN(CC(C)(C)COc1ccc(C(F)(F)F)cc1)C(=O)c1cncn1C` [compound 192], the EC (30% increase) was not above 1 µM.

Turning to `Cn1cncc1C(=O)N(Cc1cccnc1)CC(C)(C)COc1ccc(C(F)(F)F)cc1` [compound 193], the EC (30% increase) was not above 1 µM.

On to `Cn1cncc1C(=O)N(Cc1ccccc1Cl)CC(C)(C)COc1ccc(C(F)(F)F)cc1` [compound 194], for which the EC (30% increase) was not above 1 µM.

On to `Cc1ccccc1CN(CC(C)COc1ccc(C(F)(F)F)cc1)C(=O)c1cncn1C` (stereo not drawn) [compound 195], for which the EC (30% increase) was not above 1 µM.

On to `CC(C)(COc1cnc(C(F)(F)F)nc1)CN(Cc1cccnc1)Cc1ccccc1C(F)(F)F` [compound 196], for which the EC (30% increase) is 1 to 10 µM.

With `CC(C)(COc1ccc(C(F)(F)F)cc1)CN(Cc1cccnc1)Cc1ccccc1C(F)(F)F` [compound 197], the EC (30% increase) was not above 1 µM.

As to `Cc1ccccc1CN(CC(O)COc1ccc(C(F)(F)F)cc1)[C@@H](c1cccnc1)C(F)(F)F` (stereo partly drawn) [compound 198], the EC (30% increase) was more than 10 µM.

As to `Cn1ccnc1C1c2ccccc2CCN1CCCOc1ccc(C(F)(F)F)cc1` (stereo not drawn) [compound 199], the EC (30% increase) is 1 to 10 µM.

Turning to `Cc1ccccc1CN(Cc1cccnc1)CC(C)(O)COc1ccc(C(F)(F)F)cc1` (stereo not drawn) [compound 200], the EC (30% increase) was not above 1 µM.

With `Cn1cncc1C(=O)N(Cc1ccccc1Cl)CC(C)(O)COc1ccc(C(F)(F)F)cc1` (stereo not drawn) [compound 201], the EC (30% increase) fell in the range of 1 to 10 µM.

These data come from patent US12428378B2, “Methods and materials for increasing level of phosphorylated AMPK protein” (University of Pittsburgh—Of the Commonwealth System of …, priority 2019, dated 2025).
